In PubChem BioAssay AID463203 (Broad Institute, 2010) one finds AC50 data, which are given here for 65 compounds.

Activity calls are given as the source filed them.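 How the source made its calls: active means more than half of replicate measurements showing over 20% loss of kinase signal relative to plate controls; inconclusive means some but at most half of replicates over 20% loss; inactive means no replicate over 20% signal loss.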

The target of the experiment is Glycogen synthase kinase-3 alpha (Homo sapiens) (UniProt P49840). Briefly: concentration-response blocking of human GSK3A – biochemical, luminescence, cell-free homogeneous, retest, dose response (AID 463203). The settings on record: GSK-3 alpha enzyme, ADP-Glo luminescence, 60 min. In general terms: ADP-Glo turns the ADP formed in a reaction into a luminescent signal.
Chain of Glycogen synthase kinase-3 alpha (Homo sapiens) (P49840 whole entry, looked up): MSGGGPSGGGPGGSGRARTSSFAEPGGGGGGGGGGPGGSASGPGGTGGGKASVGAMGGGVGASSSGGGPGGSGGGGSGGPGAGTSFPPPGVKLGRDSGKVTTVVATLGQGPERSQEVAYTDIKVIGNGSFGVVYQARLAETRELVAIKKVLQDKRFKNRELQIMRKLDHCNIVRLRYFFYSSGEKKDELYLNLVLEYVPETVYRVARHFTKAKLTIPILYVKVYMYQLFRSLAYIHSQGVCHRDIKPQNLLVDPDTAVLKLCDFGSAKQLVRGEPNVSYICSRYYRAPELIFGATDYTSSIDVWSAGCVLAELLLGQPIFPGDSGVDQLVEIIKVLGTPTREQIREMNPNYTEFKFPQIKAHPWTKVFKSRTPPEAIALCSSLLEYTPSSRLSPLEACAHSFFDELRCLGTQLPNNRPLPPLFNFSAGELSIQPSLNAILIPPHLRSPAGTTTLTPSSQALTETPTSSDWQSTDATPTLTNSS
As a reminder, the AC50 is the concentration giving half of the maximal activity seen. Turning to `O=c1[nH]c(=O)n(C2CCCCCC2)c(O)c1C=NCCCN1CCOCC1`, the AC50 was 14.4 µM.

Turning to `O=C(NCC1CCN(Cc2ccccc2Cl)CC1)Nc1ccccc1F`, the AC50 was > 30 µM (inactive).

Consider `COCCCNc1nc2ccccc2[nH]c1=O`, for which the AC50 is > 30 µM (inactive).

With `O=C1Nc2ccccc2/C1=C/c1cnc(-c2ccccc2)[nH]1`, the AC50 is > 30 µM (inactive).

For the compound `Cc1ccc(-c2cn3cccnc3n2)cc1NC(=O)c1c(-c2ccccc2Cl)noc1C`, the AC50 is > 30 µM (inactive).

For `O=C(Oc1cccc(NC(=O)c2ccco2)c1)c1cccc(S(=O)(=O)N2CCCCC2)c1`, the AC50 was > 30 µM (inactive).

With `O=C1NC(=O)/C(=C/c2ccc(-c3cc(C(=O)O)ccc3Cl)o2)S1`, the AC50 is 13.5 µM.

Regarding `O=[N+]([O-])c1ccccc1-c1cc(-c2ccccc2O)n[nH]1`, the AC50 was > 30 µM (inactive).

With `COC(=O)c1cn(C(=O)c2ccc(Cl)cc2)c2ccccc12`, the AC50 was > 30 µM (inactive).

Turning to `Oc1ccc2c(c1)oc1cc(O)ccc12`, the AC50 was 12 µM.

On to `CC1=NN(c2nc(-c3ccc(Cl)cc3)cs2)C(=O)C1`, for which the AC50 was > 30 µM (inactive).

For `COc1ccc(-c2cc(C(=O)N3CCN(c4ccccc4)CC3)no2)cc1`, the AC50 is > 30 µM (inactive).

Turning to `CCCCCCN=C(C)c1c(O)n(CCCC)c(=O)[nH]c1=O`, the AC50 is > 30 µM (inactive).

In the case of `CC(C)OCCCNc1nc2c([nH]1)c(=O)n(C)c(=O)n2C`, the AC50 was > 30 µM (inactive).

As for `Cc1c(C(=O)NCCc2ccccc2)oc2ccccc12`, the AC50 is > 30 µM (inactive).

In the case of `N#Cc1c(NC(=O)CSc2n[nH]c(N)n2)oc(-c2ccccc2)c1-c1ccccc1`, the AC50 is > 30 µM (inactive).

`Cc1ccc2oc(=O)c3cnn(CC(=O)N4CCc5ccccc5C4)c3c2c1`: the AC50 was > 30 µM (inactive).

As for `CC(C)NC(=O)Nc1n[nH]c(Nc2ccc(Cl)cc2)n1`, the AC50 is 4.87 µM.

As to `O=C(Nc1ccccc1C(=O)N1CCOCC1)c1cccnc1`, the AC50 is > 30 µM (inactive).

For the compound `COc1ccc(COC(=O)C2=C(C)NC(=O)NC2c2ccc(OC)c(OC)c2)cc1` (stereo not given), the AC50 was > 30 µM (inactive).

`COc1ccc(-n2c(O)c(C(C)=NCCCn3ccnc3)c(=O)[nH]c2=O)cc1`: the AC50 is 19 µM.

Regarding `Clc1ccccc1/C=N/Nc1cc(N2CCOCC2)ncn1`, the AC50 is > 30 µM (inactive).

For the compound `O=C(Nc1ccccc1N1CCOCC1)c1cnccn1`, the AC50 was 28.6 µM.

In the case of `O=C1/C(=C/c2ccc(O)c(O)c2)Oc2cc(O)ccc21`, the AC50 was 10.5 µM.

Take `O=C(O)CN1C(=O)C2C3CC(C2C1=O)C1C(c2ccccc2)c2sc(=O)[nH]c2SC31` (stereo not given): the AC50 was > 30 µM (inactive).

Take `CCC(=O)NC(=S)Nc1cccc(C(C)=O)c1`: the AC50 was > 30 µM (inactive).

For the compound `CN(Cc1nc2c(s1)CCCC2)C(=O)CCc1nnc(-c2ccccc2)o1`, the AC50 is > 30 µM (inactive).

On to `Cc1c(C)n(CCCN(C)C)c2ncnc(NC3CCCCC3)c12`, for which the AC50 is > 30 µM (inactive).

Regarding `Cc1ccc(NC(=O)c2cc(-n3cnnc3)ccc2Cl)c(C)c1`, the AC50 is > 30 µM (inactive).

For the compound `CN(C)c1ccc(Nc2nc(N)c3ccccc3n2)cc1`, the AC50 was 18.2 µM.

With `O=C(CNC(=S)N(Cc1ccccc1)Cc1cccnc1)NC1CCCCC1`, the AC50 was > 30 µM (inactive).

As for `Cc1ccc(S(=O)(=O)N2CCN(CC(=O)N/N=C\c3ccccn3)CC2)cc1`, the AC50 was > 30 µM (inactive).

As for `COc1cccc(CCNC(=O)c2cc(COc3c(F)cccc3F)on2)c1`, the AC50 is > 30 µM (inactive).

Take `COc1ccc(OCc2nc(N)nc(Nc3cccc(C)c3C)n2)cc1`: the AC50 was > 30 µM (inactive).

With `COc1ccc(C(=O)c2c(C(F)(F)F)oc3c2C(=O)c2ccccc2C3=O)cc1`, the AC50 is > 30 µM (inactive).

Turning to `CCCNC(=O)NC(C)C12CC3CC(CC(C3)C1)C2` (stereo not given), the AC50 was > 30 µM (inactive).

Regarding `CCc1nnc(NS(=O)(=O)c2ccc(N/C=C(\C=O)c3nc4cc(Cl)ccc4o3)cc2)s1`, the AC50 is 9.24 µM.

As to `Cc1ccnc(NC(=O)CCC(=O)N(CC(=O)NCc2ccccc2)Cc2ccc(F)cc2)c1`, the AC50 was 25 µM.

Turning to `COc1cccc(/C=c2\s/c(=C\C(=O)C(C)(C)C)[nH]c2=O)c1`, the AC50 was > 30 µM (inactive).

Take `CCN1CCN(c2nc(N)c([N+](=O)[O-])c(Nc3ccc(C)cc3)n2)CC1`: the AC50 was > 30 µM (inactive).

Consider `O=[N+]([O-])c1ccc(O)c(/C=N/n2c(-c3ccccc3)n[nH]c2=S)c1`, for which the AC50 is 26.3 µM.

As to `O=C(Nc1ccsc1C(=O)O)c1ccccc1`, the AC50 is > 30 µM (inactive).

Take `Nc1nonc1-n1nnc(C(=O)N/N=C/c2ccco2)c1CSc1ccccc1`: the AC50 was > 30 µM (inactive).

Turning to `O=C1CCCC/C1=C\Nc1ccc(O)cc1`, the AC50 is 21.6 µM.

As to `O=C(O)c1cccc2c1C(=O)c1ccccc1C2=O`, the AC50 is > 30 µM (inactive).

As for `CCc1ccc(NC(=S)NC(=O)CC(C)C)cc1`, the AC50 was > 30 µM (inactive).

For `Cc1ccc(NC(=S)Nc2ccc3cn[nH]c3c2)c(C)c1`, the AC50 is > 30 µM (inactive).

Take `C#CCOCCOCCOCCNc1nc(N2CCN(C(=O)CCCCCCCCCCNC(=O)[C@H](CCCCN)n3cc(C)nn3)CC2)nc(N2CCN(C(=O)CCCCCCCCCCNC(=O)[C@@H]([C@H](C)CC)n3cc(CCCCCN)nn3)CC2)n1`: the AC50 was > 30 µM (inactive).

Regarding `Cc1cccc(NC(=O)COC(=O)c2ccccn2)c1`, the AC50 is > 30 µM (inactive).

`CCOc1ccc(N2C(=O)C3C(c4ccccc4F)NN(C(=O)c4ccc(C)cc4)C3C2=O)cc1` (stereo not given): the AC50 was > 30 µM (inactive).

On to `CCOC(=O)c1cnc2c(Cl)c(Cl)ccc2c1N1CCN(C)CC1`, for which the AC50 is > 30 µM (inactive).

For the compound `COC(=O)c1ccc(CSc2nnc(-c3ccncc3)n2Cc2ccccc2)o1`, the AC50 is > 30 µM (inactive).

As to `CCN(CC)c1ccc2ccc(=O)oc2c1`, the AC50 was > 30 µM (inactive).

In the case of `COc1cc(CN2CCCN(C)CC2)c([N+](=O)[O-])cc1OC`, the AC50 is > 30 µM (inactive).

Turning to `CCCCOc1ccc(CSc2nc(C)[nH]c2[N+](=O)[O-])cc1[N+](=O)[O-]`, the AC50 was > 30 µM (inactive).

As for `N#Cc1sc2nc3c(c(-c4ccco4)c2c1N)CCCC3`, the AC50 was 2.42 µM.

With `NNC(=O)/C(=N/Nc1ccccc1)S(=O)(=O)c1ccc(Cl)cc1`, the AC50 was > 30 µM (inactive).

In the case of `CCCc1nnc(NC(=O)CCN2C(=O)c3ccccc3C2=O)s1`, the AC50 was > 30 µM (inactive).

On to `CN(CCO)c1ncnc2c1sc1nc(N3CCOCC3)c3c(c12)CCC3`, for which the AC50 is > 30 µM (inactive).

Take `O=C(O)CCNc1ccc(NCCC(=O)O)c2c1C(=O)c1ccccc1C2=O`: the AC50 is 22.7 µM.

As for `CCN(CC)CCCNc1ncnc2scc(-c3ccc(F)cc3)c12`, the AC50 was > 30 µM (inactive).

As for `Cc1cc(/C=N\NC(=O)c2cccs2)c(C)n1-c1ccc2ncccc2c1`, the AC50 is > 30 µM (inactive).

Turning to `COc1cccc(/C=N/n2nnnc2N)c1OCC#N`, the AC50 was > 30 µM (inactive).

Take `Cc1cccc(C)c1OC(=O)Cc1ccccc1`: the AC50 is > 30 µM (inactive).

Consider `COc1ccc(OC)c(C(=O)c2c(C)oc3cc(Br)c(O)c(CN(C)C)c23)c1`, for which the AC50 is > 30 µM (inactive).
